Read-outs that look alike come from different tables or passages of the source.
Experiments:
DYRK1A = target: T1, DYRK1A (Homo sapiens, UniProt Q13627); assay: binding to immobilized V16742 (IVA1/IVA2, HeLa lysate, MS)
T1 construct: endogenous in cells; host or cells: HeLa S3

DYRK1A (IPI00219250) = target: T2, DYRK1A (IPI00219250) (Homo sapiens, UniProt Q13627); assay: binding to VI16742 beads (HeLa lysate, SILAC MS)
T2 construct: endogenous in cells; host or cells: HeLa S3 cell lysate

PHKg2 = target: T3, PHKg2 (Homo sapiens, UniProt P15735); assay: binding to immobilized V16742 (IVA1/IVA2, HeLa lysate, MS)
T3 construct: endogenous in cells; host or cells: HeLa S3
T3 sequence (P15735 1-406): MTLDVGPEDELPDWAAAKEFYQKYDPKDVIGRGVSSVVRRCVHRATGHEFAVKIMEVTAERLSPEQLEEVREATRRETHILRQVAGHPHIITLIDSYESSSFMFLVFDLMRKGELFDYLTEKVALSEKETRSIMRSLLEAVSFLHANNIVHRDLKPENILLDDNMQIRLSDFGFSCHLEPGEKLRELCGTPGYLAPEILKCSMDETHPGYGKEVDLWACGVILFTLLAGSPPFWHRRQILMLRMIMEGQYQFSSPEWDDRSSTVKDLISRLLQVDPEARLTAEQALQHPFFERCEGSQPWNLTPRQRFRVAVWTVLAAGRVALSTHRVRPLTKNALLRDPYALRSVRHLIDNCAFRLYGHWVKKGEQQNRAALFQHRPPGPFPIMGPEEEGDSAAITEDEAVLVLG

[1] = target: p38a (MAPK14, IPI00002857) (Homo sapiens, UniProt Q16539); assay: gefitinib competition against AX14596 beads (HeLa lysate, SILAC MS); assay type: binding
p38a (MAPK14, IPI00002857), sequence (Q16539 whole entry): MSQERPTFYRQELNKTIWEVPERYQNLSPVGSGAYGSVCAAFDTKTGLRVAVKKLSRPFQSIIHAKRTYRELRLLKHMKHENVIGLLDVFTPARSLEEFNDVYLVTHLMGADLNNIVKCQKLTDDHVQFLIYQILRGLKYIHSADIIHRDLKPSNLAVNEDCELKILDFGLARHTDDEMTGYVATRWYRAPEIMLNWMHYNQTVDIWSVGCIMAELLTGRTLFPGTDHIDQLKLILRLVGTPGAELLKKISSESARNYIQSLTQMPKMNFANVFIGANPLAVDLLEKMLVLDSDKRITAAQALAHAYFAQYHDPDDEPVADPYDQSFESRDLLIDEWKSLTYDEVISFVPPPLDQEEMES

CK1e (CSNK1E) = CK1e (CSNK1E) (Homo sapiens, UniProt P49674)
CK1e (CSNK1E), sequence (P49674 whole entry): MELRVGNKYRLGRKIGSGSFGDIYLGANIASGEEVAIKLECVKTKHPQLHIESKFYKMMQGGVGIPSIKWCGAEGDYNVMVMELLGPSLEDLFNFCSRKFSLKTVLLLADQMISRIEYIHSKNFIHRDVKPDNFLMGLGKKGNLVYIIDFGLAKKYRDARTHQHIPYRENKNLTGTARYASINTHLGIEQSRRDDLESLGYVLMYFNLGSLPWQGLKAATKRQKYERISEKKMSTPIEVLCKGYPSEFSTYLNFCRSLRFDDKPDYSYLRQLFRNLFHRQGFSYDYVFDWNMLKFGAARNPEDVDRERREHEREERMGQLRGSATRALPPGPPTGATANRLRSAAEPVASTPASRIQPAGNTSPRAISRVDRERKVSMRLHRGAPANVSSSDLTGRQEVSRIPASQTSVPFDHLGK

RPL27A = RPL27A (Homo sapiens, UniProt P46776)
ALK2 (ACVR1) = target: T4, ALK2 (ACVR1) (Homo sapiens, UniProt Q04771)
T4 sequence (Q04771 21-509): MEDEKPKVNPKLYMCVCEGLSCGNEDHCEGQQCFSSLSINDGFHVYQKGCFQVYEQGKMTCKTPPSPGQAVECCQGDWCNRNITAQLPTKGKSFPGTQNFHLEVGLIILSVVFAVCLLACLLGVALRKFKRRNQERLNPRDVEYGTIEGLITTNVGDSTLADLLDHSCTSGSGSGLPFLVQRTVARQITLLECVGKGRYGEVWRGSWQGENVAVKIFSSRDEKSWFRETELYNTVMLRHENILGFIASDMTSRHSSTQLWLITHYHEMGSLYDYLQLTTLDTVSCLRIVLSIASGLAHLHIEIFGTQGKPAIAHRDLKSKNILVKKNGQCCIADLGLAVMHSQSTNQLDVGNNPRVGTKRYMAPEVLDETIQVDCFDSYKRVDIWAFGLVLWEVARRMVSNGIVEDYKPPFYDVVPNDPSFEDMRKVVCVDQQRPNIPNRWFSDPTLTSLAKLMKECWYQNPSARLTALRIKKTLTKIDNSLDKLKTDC

CC(C)n1c(=O)ccc2cnc(Nc3ccc(OCCN)cc3)nc21 [V16742]
Percent bound at various 16742 conc (DYRK1A; Experiment 1, 1.87 μM 16742): 5.75% | Percent bound at various 16742 conc (DYRK1A; Experiment 1, 8.74 μM 16742): 14.82% | Percent bound at various 16742 conc (DYRK1A; Experiment 1, 52 μM 16742): 52.16% | Kd (DYRK1A; Experiment 1, read-out: Kd): 47.8 µM | Percent bound at various 16742 conc (DYRK1A; Experiment 2, 1.87 μM 16742): 1.08% | Percent bound at various 16742 conc (DYRK1A; Experiment 2, 8.74 μM 16742): 3.76% | Percent bound at various 16742 conc (DYRK1A; Experiment 2, 52 μM 16742): 28.11% | Kd (DYRK1A; Experiment 2, read-out: Kd): 137 µM | Kd (DYRK1A; average of two experiments, read-out: Kd Avg): 92.5 µM | rAVERAGE (CTRL/1 INC) (DYRK1A (IPI00219250); control beads vs first incubation): 0.08 | Ki (DYRK1A (IPI00219250); immobilized VI16742): 83.8 µM | rAVERAGE (2 INC/1 INC) (DYRK1A (IPI00219250); second vs first incubation): 0.62 | Percent bound at various 16742 conc (PHKg2; Experiment 1, 52 μM 16742): 59.42% | Kd (PHKg2; Experiment 2): 146 µM | Percent bound at various 16742 conc (PHKg2; Experiment 2, 1.87 μM 16742): 1.94% | Percent bound at various 16742 conc (PHKg2; Experiment 2, 8.74 μM 16742): 2.29% | Percent bound at various 16742 conc (PHKg2; Experiment 2, 52 μM 16742): 27.11%

COc1cc2ncnc(Nc3ccc(F)c(Cl)c3)c2cc1OCCCN1CCOCC1 [gefitinib]
rAVERAGE (10 nM/0 nM Gef.) [1]: 0.88 | rAVERAGE (100 nM/0 nM Gef.) [1]: 1.04 | rAVERAGE (1000 nM/0 nM Gef.) [1]: 0.92 | rAVERAGE (10000 nM/0 nM Gef.) [1]: 0.64 | rAVERAGE (10 nM/0 nM Gef.) (CK1e (CSNK1E)): 0.80 | rAVERAGE (100 nM/0 nM Gef.) (CK1e (CSNK1E)): 1.00 | rAVERAGE (1000 nM/0 nM Gef.) (CK1e (CSNK1E)): 0.84 | rAVERAGE (10000 nM/0 nM Gef.) (CK1e (CSNK1E)): 0.59 | rAVERAGE (10 nM/0 nM Gef.) (RPL27A): 0.87 | rAVERAGE (100 nM/0 nM Gef.) (RPL27A): 1.05 | rAVERAGE (1000 nM/0 nM Gef.) (RPL27A): 0.81 | rAVERAGE (10000 nM/0 nM Gef.) (RPL27A): 1.03 | rAVERAGE (10 nM/0 nM Gef.) (ALK2 (ACVR1)): 0.76 | rAVERAGE (100 nM/0 nM Gef.) (ALK2 (ACVR1)): 1.25 | rAVERAGE (1000 nM/0 nM Gef.) (ALK2 (ACVR1)): 0.77 | rAVERAGE (10000 nM/0 nM Gef.) (ALK2 (ACVR1)): 0.85
